{"source": "ChEMBL document CHEMBL3044945", "about": "“Synthesis of 1,3,5-trisubstituted pyrazoline nucleus containing compounds and screening for antimicrobial activity” (2012)", "type_in_all_cases": "functional", "key": {"Staphylococcus aureus [1]": {"test_system": "Staphylococcus aureus", "test": "Antibacterial activity against Staphylococcus aureus MTCC 1430 at 500 ug/ml after 48 hr by cup-plate method", "settings": "MTCC 1430, 48 h, read-out: DIZ"}, "Micrococcus luteus [2]": {"test_system": "Micrococcus luteus", "test": "Antibacterial activity against Micrococcus luteus MTCC 1538 at 1250 ug/ml after 48 hr by cup-plate method", "settings": "MTCC 1538, 48 h, read-out: DIZ"}, "Pseudomonas aeruginosa [3]": {"test_system": "Pseudomonas aeruginosa", "test": "Antibacterial activity against Pseudomonas aeruginosa MTCC 424 at 1000 ug/ml after 48 hr by cup-plate method", "settings": "MTCC 424, 48 h, read-out: DIZ"}, "Bacillus pumilus [4]": {"test_system": "Bacillus pumilus", "test": "Antibacterial activity against Bacillus pumilus MTCC 1456 at 250 ug/ml after 48 hr by cup-plate method", "settings": "MTCC 1456, 48 h, read-out: DIZ"}, "Penicillium chrysogenum [5]": {"test_system": "Penicillium chrysogenum", "test": "Antifungal activity against Penicillium chrysogenum MTCC 161 at 750 ug/ml after 48 hr by cup-plate method", "settings": "MTCC 161, 48 h, read-out: DIZ"}, "Bacillus pumilus [6]": {"test_system": "Bacillus pumilus", "test": "Antibacterial activity against Bacillus pumilus MTCC 1456 at 1000 ug/ml after 48 hr by cup-plate method", "settings": "MTCC 1456, 48 h, read-out: DIZ"}, "Escherichia coli [7]": {"test_system": "Escherichia coli", "test": "Antibacterial activity against Escherichia coli MTCC 1573 at 500 ug/ml after 48 hr by cup-plate method", "settings": "MTCC 1573, 48 h, read-out: DIZ"}, "Escherichia coli [8]": {"test_system": "Escherichia coli", "test": "Antibacterial activity against Escherichia coli MTCC 1573 at 100 ug/ml after 48 hr by cup-plate method", "settings": "MTCC 1573, 48 h, read-out: DIZ"}, "Bacillus subtilis [9]": {"test_system": "Bacillus subtilis", "test": "Antibacterial activity against Bacillus subtilis MTCC 441 at 500 ug/ml after 48 hr by cup-plate method", "settings": "MTCC 441, 48 h, read-out: DIZ"}, "Aspergillus niger [10]": {"test_system": "Aspergillus niger", "test": "Antifungal activity against Aspergillus niger MTCC 2546 at 1250 ug/ml after 48 hr by cup-plate method", "settings": "MTCC 2546, 48 h, read-out: DIZ"}, "Bacillus pumilus [11]": {"test_system": "Bacillus pumilus", "test": "Antibacterial activity against Bacillus pumilus MTCC 1456 after 24 to 48 hr by tube dilution method"}, "Micrococcus luteus [12]": {"test_system": "Micrococcus luteus", "test": "Antibacterial activity against Micrococcus luteus MTCC 1538 after 24 to 48 hr by tube dilution method"}, "Bacillus subtilis [13]": {"test_system": "Bacillus subtilis", "test": "Antibacterial activity against Bacillus subtilis MTCC 441 at 1250 ug/ml after 48 hr by cup-plate method", "settings": "MTCC 441, 48 h, read-out: DIZ"}, "Aspergillus niger [14]": {"test_system": "Aspergillus niger", "test": "Antifungal activity against Aspergillus niger MTCC 2546 at 500 ug/ml after 48 hr by cup-plate method", "settings": "MTCC 2546, 48 h, read-out: DIZ"}, "Pseudomonas aeruginosa [15]": {"test_system": "Pseudomonas aeruginosa", "test": "Antibacterial activity against Pseudomonas aeruginosa MTCC 424 at 500 ug/ml after 48 hr by cup-plate method", "settings": "MTCC 424, 48 h, read-out: DIZ"}, "Bacillus subtilis [16]": {"test_system": "Bacillus subtilis", "test": "Antibacterial activity against Bacillus subtilis MTCC 441 at 1000 ug/ml after 48 hr by cup-plate method", "settings": "MTCC 441, 48 h, read-out: DIZ"}, "Staphylococcus aureus [17]": {"test_system": "Staphylococcus aureus", "test": "Antibacterial activity against Staphylococcus aureus MTCC 1430 after 24 to 48 hr by tube dilution method"}, "Bacillus subtilis [18]": {"test_system": "Bacillus subtilis", "test": "Antibacterial activity against Bacillus subtilis MTCC 441 at 250 ug/ml after 48 hr by cup-plate method", "settings": "MTCC 441, 48 h, read-out: DIZ"}, "Pseudomonas aeruginosa [19]": {"test_system": "Pseudomonas aeruginosa", "test": "Antibacterial activity against Pseudomonas aeruginosa MTCC 424 at 250 ug/ml after 48 hr by cup-plate method", "settings": "MTCC 424, 48 h, read-out: DIZ"}, "Pseudomonas fluorescens [20]": {"test_system": "Pseudomonas fluorescens", "test": "Antibacterial activity against Pseudomonas fluorescens MTCC 2421 at 1000 ug/ml after 48 hr by cup-plate method", "settings": "MTCC 2421, 48 h, read-out: DIZ"}, "Escherichia coli [21]": {"test_system": "Escherichia coli", "test": "Antibacterial activity against Escherichia coli MTCC 1573 at 1000 ug/ml after 48 hr by cup-plate method", "settings": "MTCC 1573, 48 h, read-out: DIZ"}, "Micrococcus luteus [22]": {"test_system": "Micrococcus luteus", "test": "Antibacterial activity against Micrococcus luteus MTCC 1538 at 100 ug/ml after 48 hr by cup-plate method", "settings": "MTCC 1538, 48 h, read-out: DIZ"}, "Bacillus pumilus [23]": {"test_system": "Bacillus pumilus", "test": "Antibacterial activity against Bacillus pumilus MTCC 1456 at 750 ug/ml after 48 hr by cup-plate method", "settings": "MTCC 1456, 48 h, read-out: DIZ"}, "Penicillium chrysogenum [24]": {"test_system": "Penicillium chrysogenum", "test": "Antifungal activity against Penicillium chrysogenum MTCC 161 at 1000 ug/ml after 48 hr by cup-plate method", "settings": "MTCC 161, 48 h, read-out: DIZ"}, "Pseudomonas aeruginosa [25]": {"test_system": "Pseudomonas aeruginosa", "test": "Antibacterial activity against Pseudomonas aeruginosa MTCC 424 after 24 to 48 hr by tube dilution method"}, "Pseudomonas fluorescens [26]": {"test_system": "Pseudomonas fluorescens", "test": "Antibacterial activity against Pseudomonas fluorescens MTCC 2421 at 750 ug/ml after 48 hr by cup-plate method", "settings": "MTCC 2421, 48 h, read-out: DIZ"}, "Pseudomonas aeruginosa [27]": {"test_system": "Pseudomonas aeruginosa", "test": "Antibacterial activity against Pseudomonas aeruginosa MTCC 424 at 750 ug/ml after 48 hr by cup-plate method", "settings": "MTCC 424, 48 h, read-out: DIZ"}}}
{"smiles": "O=[N+]([O-])c1ccc(C2CC(c3cccc4ccccc34)=NN2c2ccc([N+](=O)[O-])cc2[N+](=O)[O-])cc1", "note": "(configuration not stated)", "values": [{"measurement": "zone of inhibition at 500 µg/mL", "setting": "Staphylococcus aureus [1]", "result": 9, "unit": "mm"}, {"measurement": "zone of inhibition at 1250 µg/mL", "setting": "Micrococcus luteus [2]", "result": 14, "unit": "mm"}, {"measurement": "zone of inhibition at 1000 µg/mL", "setting": "Pseudomonas aeruginosa [3]", "result": 14, "unit": "mm"}, {"measurement": "zone of inhibition at 250 µg/mL", "setting": "Bacillus pumilus [4]", "result": 11, "unit": "mm"}, {"measurement": "zone of inhibition at 750 µg/mL", "setting": "Penicillium chrysogenum [5]", "result": 22, "unit": "mm"}, {"measurement": "zone of inhibition at 1000 µg/mL", "setting": "Bacillus pumilus [6]", "result": 22, "unit": "mm"}, {"measurement": "zone of inhibition at 500 µg/mL", "setting": "Escherichia coli [7]", "result": 11, "unit": "mm"}, {"measurement": "zone of inhibition at 100 µg/mL", "setting": "Escherichia coli [8]", "result": 9, "unit": "mm"}, {"measurement": "zone of inhibition at 500 µg/mL", "setting": "Bacillus subtilis [9]", "result": 13, "unit": "mm"}, {"measurement": "zone of inhibition at 1250 µg/mL", "setting": "Aspergillus niger [10]", "result": 23, "unit": "mm"}, {"measurement": "MIC", "setting": "Bacillus pumilus [11]", "result": 30, "unit": "µg/mL"}, {"measurement": "MIC", "setting": "Micrococcus luteus [12]", "result": 150, "unit": "µg/mL"}, {"measurement": "zone of inhibition at 1250 µg/mL", "setting": "Bacillus subtilis [13]", "result": 16, "unit": "mm"}, {"measurement": "zone of inhibition at 500 µg/mL", "setting": "Aspergillus niger [14]", "result": 16, "unit": "mm"}, {"measurement": "zone of inhibition at 500 µg/mL", "setting": "Pseudomonas aeruginosa [15]", "result": 12, "unit": "mm"}, {"measurement": "zone of inhibition at 1000 µg/mL", "setting": "Bacillus subtilis [16]", "result": 15, "unit": "mm"}, {"measurement": "MIC", "setting": "Staphylococcus aureus [17]", "result": 150, "unit": "µg/mL"}, {"measurement": "zone of inhibition at 250 µg/mL", "setting": "Bacillus subtilis [18]", "result": 12, "unit": "mm"}, {"measurement": "zone of inhibition at 250 µg/mL", "setting": "Pseudomonas aeruginosa [19]", "result": 11, "unit": "mm"}, {"measurement": "zone of inhibition at 1000 µg/mL", "setting": "Pseudomonas fluorescens [20]", "result": 22, "unit": "mm"}, {"measurement": "zone of inhibition at 1000 µg/mL", "setting": "Escherichia coli [21]", "result": 14, "unit": "mm"}, {"measurement": "zone of inhibition at 100 µg/mL", "setting": "Micrococcus luteus [22]", "result": 8, "unit": "mm"}, {"measurement": "zone of inhibition at 750 µg/mL", "setting": "Bacillus pumilus [23]", "result": 20, "unit": "mm"}, {"measurement": "zone of inhibition at 1000 µg/mL", "setting": "Penicillium chrysogenum [24]", "result": 24, "unit": "mm"}, {"measurement": "MIC", "setting": "Pseudomonas aeruginosa [25]", "result": 50, "unit": "µg/mL"}, {"measurement": "zone of inhibition at 750 µg/mL", "setting": "Pseudomonas fluorescens [26]", "result": 21, "unit": "mm"}, {"measurement": "zone of inhibition at 750 µg/mL", "setting": "Pseudomonas aeruginosa [27]", "result": 13, "unit": "mm"}]}
